Measurements as given in patent publication US12636325B2, “Probiotic compositions for treating and preventing colorectal cancer” (The Chinese University of Hong Kong, priority 2021, dated 2026).

Experiments:
Apc^min/+ mice [1] = test: Intestinal tumorigenesis in Apc^Min/+ mice gavaged with L. gallinarum; assay type: in vivo; conditions: male and female Apc^Min/+ mice with CH-223191 treatment
Method: […] Apc^Min/+ mice at 5 to 6 weeks old were divided into 3 groups with or without CH-223191 treatment: (1) control; (2) E. coli MG1655; and (3) L. gallinarum. L. gallinarum and E. coli MG1655 were cultured in MRS broth (Difco Laboratories, Detroit, MN) and BHI broth, respectively. After one day, 1.0×10^8 colony-forming units (CFUs) bacteria were collected and resuspended in 100 ul PBS. Mice were gavaged once daily for 8 weeks and body weight and stool were examined weekly.
Mouse colonoscopy (Karl Storz Endoskope, Tuttlingen, Germany) was performed prior to sacrifice. The colonoscope was inserted into the anus and advanced proximally under direct visualization, facilitated by air insufflation, and representative pictures of the colon tumor from each group were recorded. After 8 weeks of gavage, mice were anaesthetized and sacrificed. Small intestines and colons of mice were longitudinally opened and rinsed with PBS. Total number of tumors in small intestine and colon were recorded. Size of each tumor was measured using previous published formula^42. All animal studies were performed in accordance with guidelines approved by the Animal Experimentation Ethics Committee of The Chinese University of Hong Kong.
To investigate the effect of L. gallinarum on colorectal tumorigenesis, Apc^Min/+ mice were first used. […]

[2] = test system: CRC cell lines (HCT116 and LoVo); test: Cell viability (MTT) assay, CRC cell lines; assay type: cell-based
Method: After culturing L. gallinarum or E. coli MG1655 for 1-2 days, the bacterial concentration in each culture medium was measured using NanoDrop spectrophotometer (NanoDrop Technologies, Wilmington, DE). BHI cultures were diluted to ensure equal concentrations of L. gallinarum and E. coli. Culture supernatants were then collected by centrifugation at 5,000 rpm for 10 minutes, followed by sterile filtration with a 0.22-μm membrane. Filtrates were collected and termed as L. gallinarum culture supernatant (LGCS) or E. coli MG1655 culture supernatant (ECCS). Bacterial culture supernatant was separated into low-molecular-weight (LMW) and high-molecular-weight (HMW) using Amicon Ultra-15 Centrifugal Filter Units with a pore size of 3 kilodalton (kDa, Millipore, Bedford, MA). After centrifugation in a swinging bucket rotor at 4,000 g for 30 minutes, cells were cultured in medium containing […] or control broth (LMW, 10%; HMW, 1%). The bacterial supernatants were heated at 100° C. for 30 minutes or treated with proteinase k (50 ug/ml; QIAGEN GmbH, Hilden, Germany). […] Cell proliferation was measured by MTT assay for 5 consecutive days. The amount of MTT formazan product was determined by measuring absorbance at a wavelength of 570 nm (OD570) with a microplate reader (Multiskan GO Microplate Spectrophotometer, Thermo Scientific, Vantaa, Finland). […]

[3] = biological target: T1, aryl hydrocarbon receptor (AhR) (Homo sapiens, UniProt P35869); test: Transcription of AhR after AhR antagonist; assay type: cell-based; conditions: 100 nM
T1 construct: endogenous in cells

[4] = test system: CRC cell lines, HCT116 and LoVo; test: Apoptosis assay (Annexin V-PE / 7-AAD flow cytometry), CRC cell lines; assay type: cell-based; conditions: FIG. 18F
Method: Cells were plated on 6-well plates 24 hours prior to treatment, and cultured in medium containing 10% […] or control broth. CRC patient-derived organoids were cultured on 6-well plates, and 10% […] or control broth was added to Matrigel and growth medium. After treatment, cells and organoids were digested in 0.25% trypsin-EDTA (Gibco-Invitrogen Corp., Grand Island, NY) and TrypLE, respectively. For apoptosis assay, the proportion of apoptotic cells was evaluated by dual staining with Annexin V-PE and 7-Aminoactinomycin D (7-AAD) (BD Pharmingen, San Jose, CA). Combination of Annexin V-PE and 7-AAD staining distinguished early apoptotic cells (Annexin V+, 7-AAD-) and late apoptotic cells (Annexin V+, 7-AAD+). For cell cycle analysis, cells treated with 10% […] or control broth for 1 day were fixed and stained with 50 μg/ml propidium iodide (PI) (BD Pharmingen). Cell cycle of all stained cells were analyzed using […] cell sorter (BD Biosciences, San Jose, CA).

Apc^min/+ mice [5] = test: Gavage of ILA into Apc^Min/+ mice; assay type: in vivo; conditions: gavage 20 mg/kg
Method: Functional investigation of ILA in CRC tumorigenesis was then performed in vivo. […] Moreover, additional experiments were performed to investigate if antagonizing ILA could abrogate L. gallinarum medicated anti-cancer effect. […] Thus, ILA can contribute, at least in part, to the tumor-suppressive effect of L. gallinarum.

T1 sequence (P35869 11-848): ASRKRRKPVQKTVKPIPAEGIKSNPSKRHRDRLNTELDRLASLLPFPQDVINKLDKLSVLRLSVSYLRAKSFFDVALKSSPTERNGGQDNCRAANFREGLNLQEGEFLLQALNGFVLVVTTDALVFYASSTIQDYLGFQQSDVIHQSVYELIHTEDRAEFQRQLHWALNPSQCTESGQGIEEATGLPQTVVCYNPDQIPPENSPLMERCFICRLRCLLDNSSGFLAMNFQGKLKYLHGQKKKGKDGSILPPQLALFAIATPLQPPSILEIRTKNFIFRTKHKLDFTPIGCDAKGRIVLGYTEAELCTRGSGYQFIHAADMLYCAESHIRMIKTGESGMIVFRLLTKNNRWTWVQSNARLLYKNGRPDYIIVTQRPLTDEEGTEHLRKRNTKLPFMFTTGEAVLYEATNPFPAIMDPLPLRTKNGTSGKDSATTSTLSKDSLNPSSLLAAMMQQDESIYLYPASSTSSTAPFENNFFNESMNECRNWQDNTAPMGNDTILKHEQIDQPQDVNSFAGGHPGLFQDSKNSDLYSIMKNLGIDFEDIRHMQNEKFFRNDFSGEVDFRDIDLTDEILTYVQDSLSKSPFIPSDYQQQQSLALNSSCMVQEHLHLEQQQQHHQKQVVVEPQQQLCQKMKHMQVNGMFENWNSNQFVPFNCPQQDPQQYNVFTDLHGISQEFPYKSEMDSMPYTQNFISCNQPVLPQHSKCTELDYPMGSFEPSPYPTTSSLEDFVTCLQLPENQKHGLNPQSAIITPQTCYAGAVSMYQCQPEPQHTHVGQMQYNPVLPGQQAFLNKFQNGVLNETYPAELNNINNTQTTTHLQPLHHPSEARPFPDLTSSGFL

Row | transcription of AhR [3] | Structure (SMILES) | effect on CRC suppression by L. gallinarum in Apc^Min/+ mice (Apc^min/+ mice [1]) | effect on CRC suppression by L. gallinarum in vitro ([2]; CRC cells pre-treated with 100 nM for 12 hours before culture supernatant) | cell apoptosis of CRC cells [4] | cells with positive TUNEL staining, adjacent normal tissues (Apc^min/+ mice [5]) | cells with positive TUNEL staining, tumor tissues (Apc^min/+ mice [5]) | tumor number (Apc^min/+ mice [5]) | tumor size (Apc^min/+ mice [5]) | cell viability of CRC cells ([2]; same amount of ILA as produced from L. gallinarum)
1 | significantly suppressed | Cc1ccccc1N=Nc1ccc(NC(=O)c2ccnn2C)c(C)c1 [CH-223191] | abolished the effect of L. gallinarum in suppressing CRC | abolished the effect of L. gallinarum in suppressing CRC | – | – | – | – | – | –
2 | – | O=C(O)C(O)Cc1c[nH]c2ccccc12 (stereo not drawn) [ILA, indole-3-lactic acid] | – | – | significantly increased | but not in adjacent normal tissues | increased | significantly reduced | significantly reduced | decreased substantially
